Starred links: 1 amine or outer side, 2 acyl side, 3 side chain; linkers in the order of their positions; H or OH if unused. Positions of bridges follow the written chain, without caps; N, C: chain ends. Non-standard residues stand in square brackets, D forms with d. Residues, ends and D or L forms follow the SMILES beside them. *: point of attachment. dAsp(3R-OH) = N[C@@H](C(=O)O)[C@@H](O)C(=O)O; X1 = NC[C@H](O)[C@@H](N[*:1])C(=O)[*:2]; X2 = CCC(C)(O)[C@H](N[*:1])C(=O)[*:2]; d(aIle) = CC[C@H](C)[C@@H](N)C(=O)O; Myristoyl = CCCCCCCCCCCCCC(=O)*; dOrn = NCCC[C@@H](N)C(=O)O; hSer = N[C@@H](CCO)C(=O)O
Assays:
[1] = mouse, in vivo
in vivo = conditions: female, BALB/c, mouse
[2] = iv, 5 mg/kg, Mean plasma concentration

Compound: CCCCCCCCCCCCCC(=O)N[C@H](CCCN)C(=O)N[C@@H](CO)C(=O)N[C@H](C(=O)N[C@@H](C(=O)N[C@@H](C(=O)N[C@@H]1C(=O)NCC(=O)N[C@@H](C(C)(O)CC)C(=O)N[C@H]([C@@H](C)CC)C(=O)N[C@@H](CCO)C(=O)N[C@@H](C)C(=O)N[C@H]([C@@H](C)CC)C(=O)N[C@@H](CCC(=O)O)C(=O)O[C@@H]1C)[C@@H](O)CN)[C@@H](O)C(=O)O)C(C)C (stereo partly drawn) [Compound 1, Turnercyclamycin A] (Myristoyl-[dOrn]SV[dAsp(3R-OH)][X1]TG[X2][d(aIle)][hSer]A[d(aIle)]E; ester 6-C)
- B.W. (g) [1]: −
- Body Temperature [1]: −
- Convulsion [1]: −
- Convulsion C.T.C-T [1]: −
- Dec. Exploration [1]: −
- Dec. Palpebral [1]: −
- Dec. Palpebral Size [1]: −
- Dec. Startle [1]: −
- Dec. Startle Response [1]: −
- Dec. Touch [1]: −
- Dec. Touch Response [1]: −
- Diarrhea [1]: −
- Grip Strength [1]: −
- Hyperactivity [1]: −
- Inc. Exploration [1]: −
- Inc. Palpebral Size [1]: −
- Inc. Startle [1]: −
- Lacrimation [1]: −
- Limb Tone [1]: +
- Piloerection [1]: ±
- Pinna [1]: −
- Placing [1]: −
- Righting [1]: −
- Salivation F.V. [1]: −
- Skin Color [1]: −
- Straub Tail [1]: −
- adverse effects noted after the two administrations [1]: decrease in adnominal tone, limb tone, and spontaneous activity, and tremor, piloerection, and increase in the respiration rate (fast)
- dose up to which well tolerated in mice [1]: up to 50 mg/kg
- more pronounced adverse effects elicited [1]: vocalization, ataxia, reactivity, and hunch back
- clearance (in vivo): 0.0174 L/h/kg
- AUC(0-inf) (in vivo; iv, 5 mg/kg): 290 µg·h/mL
- AUC(0-t) (in vivo; iv, 5 mg/kg): 285 µg·h/mL
- C0 (in vivo; iv, 5 mg/kg): 33.7 µg/mL
- MRT (in vivo; iv, 5 mg/kg): 5.83 h
- Vd (in vivo; iv, 5 mg/kg): 0.1 L/kg
- clearance (in vivo; iv, 5 mg/kg): 0.0174 L/h/kg
- half-life (in vivo; iv, 5 mg/kg): 4.35 h
- level at 0.05 h (in vivo; [2]): 53.3 µg/mL
- level at 0.167 h (in vivo; [2]): 38.6 µg/mL
- level at 0.5 h (in vivo; [2]): 33.7 µg/mL
- level at 1 h (in vivo; [2]): 29.3 µg/mL
- level at 2 h (in vivo; [2]): 26.2 µg/mL
- level at 4 h (in vivo; [2]): 22.5 µg/mL
- level at 8 h (in vivo; [2]): 12 µg/mL
- level at 24 h (in vivo; [2]): 0.931 µg/mL
- level at 0.5 h (in vivo; iv, 5 mg/kg, Sample concentration in plasma (individual mouse)): 34.4 µg/mL
